Experimental data reported in PubChem BioAssay (NCI).
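How tested: cells in 96-well plates exposed to compound for 48 hours at five concentrations. The concentration for 50% growth inhibition is given as GI50. At the TGI there is no net growth.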

Tests used:
Assay in all cases: inhibition of tumour cell growth, NCI panel, 48 h
[1] = tested on: HCT-116 colon
[2] = tested on: SNB-75 CNS
[3] = tested on: A549 NSCLC
[4] = tested on: SF-295 CNS
[5] = tested on: TK-10 renal
[6] = tested on: HOP-62 NSCLC
[7] = tested on: NCI-H460 lung
[8] = tested on: SF-539 CNS
[9] = tested on: K-562 leukemia
[10] = tested on: OVCAR-4 ovarian

SMILES | GI50 [1] [µM] | TGI [1] [µM] | GI50 [2] [µM] | TGI [2] [µM] | GI50 [3] [µM] | TGI [3] [µM] | GI50 [4] [µM] | TGI [4] [µM] | GI50 [5] [µM] | TGI [5] [µM] | GI50 [6] [µM] | TGI [6] [µM] | GI50 [7] [µM] | TGI [7] [µM] | GI50 [8] [µM] | TGI [8] [µM] | GI50 [9] [µM] | TGI [9] [µM] | GI50 [10] [µM] | TGI [10] [µM]
Nc1c(C(=O)Nc2ccccc2)sc2nc3c(cc12)CCCCC3 | 0.46 | > 100 | 0.378 | 2.91 | 0.696 | > 100 | 0.366 | 4.04 | 2.39 | 30.3 | 0.88 | 13.9 | 0.46 | > 100 | 0.307 | 12 |  |  |  | 
O=S(=O)([O-])c1ccc(N=Cc2ccccc2[O-])cc1.O=S(=O)([O-])c1ccc(N=Cc2ccccc2[O-])cc1.[Co+2] |  |  | > 100 | > 100 | > 100 | > 100 | > 100 | > 100 | > 100 | > 100 |  |  |  |  | 84 | > 100 | > 100 | > 100 |  | 
O=S(=O)(CCN1CCOCC1)Nc1cc(-c2ccc3ncnc(Nc4ccc(F)c(Cl)c4)c3c2)cnc1Cl | 1.38 | 19.2 |  |  | 1.62 | 6.29 | 0.624 | 4.29 |  |  | 0.578 | 14.2 | 1.56 | 19.6 | 0.418 | 2.69 | 3.27 | > 100 | 1.66 | 22.5
COc1ccc2c(c1)c(-c1nc(-c3c[nH]c4ncccc34)cs1)cn2CCCN1CCCCC1 |  |  | 1.19 | 3.09 | 1.86 | 3.53 |  |  | 1.59 | 3.03 | 1.61 | 3.2 | 1.94 | 3.88 | 1.63 | 3.07 | 1.88 | 4.16 | 1.83 | 4.35
COC(OC)c1cc2c(cc1C=O)OCO2 |  | > 100 |  | 54.7 |  | > 100 |  |  |  | > 100 |  | > 100 |  | > 100 |  | > 100 |  | > 100 |  | > 100
COC1C(O)CC(OC2CC(OC3CC(O[C@@H]4C(=O)c5c(cc6cc(OC7CC(OC8CC(O)C(O)C(C)O8)C(O)C(C)O7)c(C)c(O)c6c5O)CC4[C@H](OC)C(=O)O)OC(C)C3O)OC(C)C2O)OC1C (some centres not stated) | 1.25 | > 33.3 | 1.03 | 7.89 | 1.66 | > 33.3 | 0.97 | > 33.3 | 4.56 | > 33.3 | 1.63 | > 33.3 | 1.31 | > 33.3 |  |  | 1.96 | > 33.3 | 4.9 | > 33.3
CO[C@@H]1C=C[C@@]23c4cc5c(cc4CN(C[C@@H]2O)[C@H]3C1)OCO5 |  |  |  | 50.6 |  | > 100 |  | > 100 |  | > 100 |  |  |  | > 100 |  | > 100 |  | > 100 |  | 18.8
O=c1[nH]c2ccccc2c2nc3ccccc3n12 |  | > 100 |  |  |  | > 100 |  | > 100 |  | > 100 |  | > 100 |  | > 100 |  | 69.1 |  | > 100 |  | 14
COc1ccc(/C=C2\CN(C(=O)C(Cl)Cl)C/C(=C\c3ccc(OC)cc3)C2=O)cc1 | 0.234 | 0.653 |  |  | 2.57 | > 100 |  |  |  |  |  |  |  |  |  |  | 0.343 | > 100 | 2.32 | > 100
